Source: patent publication US10143716B2, “Pawpaw and/or peach derived composition” (PHOENIX EAGLE COMPANY PTY LTD, priority 2002, dated 2018)
“Also recorded” adds a separate entry of the source.

System: PMR or poly-myalga-rheumatica
Assay: Example 19B: patient with PMR (poly-myalga-rheumatica), pain relief
Type: in vivo, human
Details: for pain relief: PMR pain in neck, shoulders, hands, knees and ankles

SMILES | pain relief | side-effects (human, in vivo)
Cc1ccc(-c2cc(C(F)(F)F)nn2-c2ccc(S(N)(=O)=O)cc2)cc1 [CELEBREX] | proved to be effective; also recorded: effective as a painkiller | did not cause the same side-effects; also recorded: adverse effect on the medication they were taking following a heart attack
CC(=O)Nc1ccc(O)cc1 [Panamax] | not effective to relieve their pain | 
